Measurements reported in ChEMBL document CHEMBL4390652, “Design, biological evaluation and X-ray crystallography of nanomolar multifunctional ligands targeting simultaneously acetylcholinesterase and glycogen synthase kinase-3” (Eur J Med Chem, 2019).

Tests used:
[1] = biological target: TGF-beta receptor type-1 (Homo sapiens) (UniProt P36897); experiment: Binding affinity to wild-type human partial length TGFBR1 (D179 to M503 residues) expressed in bacterial expression system assessed as residual binding level at 10 uM by Kinomescan method relative to control
[2] = biological target: Ephrin type-A receptor 2 (Homo sapiens) (UniProt P29317); experiment: Binding affinity to wild-type human partial length EPHA2 (T593 to V891 residues) expressed in bacterial expression system assessed as residual binding level at 10 uM by Kinomescan method relative to control
[3] = biological target: Fibroblast growth factor receptor 3 (Homo sapiens) (UniProt P22607); experiment: Binding affinity to wild-type human partial length FGFR3 (R442 to S771 residues) expressed in bacterial expression system assessed as residual binding level at 10 uM by Kinomescan method relative to control
Chain of Fibroblast growth factor receptor 3 (Homo sapiens) (P22607 23-806 limits assumed): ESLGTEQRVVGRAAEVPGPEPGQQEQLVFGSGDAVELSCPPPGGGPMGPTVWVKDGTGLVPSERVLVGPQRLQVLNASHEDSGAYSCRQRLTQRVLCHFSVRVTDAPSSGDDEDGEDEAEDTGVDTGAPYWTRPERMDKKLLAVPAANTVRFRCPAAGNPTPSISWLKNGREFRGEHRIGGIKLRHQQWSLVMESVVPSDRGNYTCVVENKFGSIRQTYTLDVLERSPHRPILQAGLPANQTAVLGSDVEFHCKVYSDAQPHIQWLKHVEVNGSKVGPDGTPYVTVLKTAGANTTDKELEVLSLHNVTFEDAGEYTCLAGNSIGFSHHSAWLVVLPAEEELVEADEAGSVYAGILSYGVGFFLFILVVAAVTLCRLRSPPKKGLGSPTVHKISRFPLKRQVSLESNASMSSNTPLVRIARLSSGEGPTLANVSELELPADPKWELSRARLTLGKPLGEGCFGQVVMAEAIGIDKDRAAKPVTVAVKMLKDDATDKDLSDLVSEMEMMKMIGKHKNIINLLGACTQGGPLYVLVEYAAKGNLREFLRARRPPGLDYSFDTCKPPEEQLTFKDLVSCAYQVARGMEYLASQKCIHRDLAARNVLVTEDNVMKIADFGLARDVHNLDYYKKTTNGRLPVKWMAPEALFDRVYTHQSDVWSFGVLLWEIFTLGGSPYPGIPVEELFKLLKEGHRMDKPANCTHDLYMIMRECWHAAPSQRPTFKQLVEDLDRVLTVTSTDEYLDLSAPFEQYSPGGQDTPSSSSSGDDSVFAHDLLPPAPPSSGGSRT

[4] = biological target: Mitogen-activated protein kinase kinase kinase 9 (Homo sapiens) (UniProt P80192); experiment: Binding affinity to wild-type human partial length MLK1 (V88 to W426 residues) expressed in bacterial expression system assessed as residual binding level at 10 uM by Kinomescan method relative to control
Chain of Mitogen-activated protein kinase kinase kinase 9 (Homo sapiens) (P80192 whole entry, looked up, the tested form may be a part): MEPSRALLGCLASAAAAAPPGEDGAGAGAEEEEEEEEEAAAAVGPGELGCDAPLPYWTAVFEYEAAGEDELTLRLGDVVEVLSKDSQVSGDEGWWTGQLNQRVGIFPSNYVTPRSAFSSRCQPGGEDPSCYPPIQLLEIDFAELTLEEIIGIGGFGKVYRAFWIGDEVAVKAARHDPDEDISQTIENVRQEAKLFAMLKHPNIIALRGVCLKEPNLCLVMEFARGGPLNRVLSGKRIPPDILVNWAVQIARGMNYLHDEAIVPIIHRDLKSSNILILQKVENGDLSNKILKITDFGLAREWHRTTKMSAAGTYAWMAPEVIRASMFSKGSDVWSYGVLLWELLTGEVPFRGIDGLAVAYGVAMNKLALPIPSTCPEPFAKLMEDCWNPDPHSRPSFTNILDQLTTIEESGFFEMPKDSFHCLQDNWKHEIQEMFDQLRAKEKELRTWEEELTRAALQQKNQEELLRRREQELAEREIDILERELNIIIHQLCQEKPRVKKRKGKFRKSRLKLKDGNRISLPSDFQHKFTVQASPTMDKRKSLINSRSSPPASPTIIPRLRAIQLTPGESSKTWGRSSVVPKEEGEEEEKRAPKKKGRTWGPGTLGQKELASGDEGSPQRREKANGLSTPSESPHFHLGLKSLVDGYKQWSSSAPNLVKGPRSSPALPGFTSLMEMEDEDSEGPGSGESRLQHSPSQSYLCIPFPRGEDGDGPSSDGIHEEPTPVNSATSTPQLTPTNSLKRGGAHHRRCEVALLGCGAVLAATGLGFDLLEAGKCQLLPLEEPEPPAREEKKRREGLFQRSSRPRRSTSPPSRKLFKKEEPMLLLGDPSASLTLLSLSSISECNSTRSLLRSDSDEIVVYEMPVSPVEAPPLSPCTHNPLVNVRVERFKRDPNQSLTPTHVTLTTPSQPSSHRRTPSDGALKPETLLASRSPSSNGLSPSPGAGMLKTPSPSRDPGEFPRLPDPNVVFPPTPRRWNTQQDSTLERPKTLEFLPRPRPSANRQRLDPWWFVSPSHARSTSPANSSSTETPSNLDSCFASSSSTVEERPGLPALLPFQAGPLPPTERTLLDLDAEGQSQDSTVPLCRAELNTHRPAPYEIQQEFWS

[5] = biological target: Serine/threonine-protein kinase TNNI3K (Homo sapiens) (UniProt Q59H18); experiment: Binding affinity to wild-type human full length TNNI3K (M1 to S835 residues) expressed in bacterial expression system assessed as residual binding level at 10 uM by Kinomescan method relative to control
[6] = biological target: Mitogen-activated protein kinase kinase kinase 13 (Homo sapiens) (UniProt O43283); experiment: Binding affinity to wild-type human full length LZK (M1 to W966 residues) expressed in mammalian expression system assessed as residual binding level at 10 uM by Kinomescan method relative to control
Chain of Mitogen-activated protein kinase kinase kinase 13 (Homo sapiens) (O43283 whole entry, the tested form may be a part): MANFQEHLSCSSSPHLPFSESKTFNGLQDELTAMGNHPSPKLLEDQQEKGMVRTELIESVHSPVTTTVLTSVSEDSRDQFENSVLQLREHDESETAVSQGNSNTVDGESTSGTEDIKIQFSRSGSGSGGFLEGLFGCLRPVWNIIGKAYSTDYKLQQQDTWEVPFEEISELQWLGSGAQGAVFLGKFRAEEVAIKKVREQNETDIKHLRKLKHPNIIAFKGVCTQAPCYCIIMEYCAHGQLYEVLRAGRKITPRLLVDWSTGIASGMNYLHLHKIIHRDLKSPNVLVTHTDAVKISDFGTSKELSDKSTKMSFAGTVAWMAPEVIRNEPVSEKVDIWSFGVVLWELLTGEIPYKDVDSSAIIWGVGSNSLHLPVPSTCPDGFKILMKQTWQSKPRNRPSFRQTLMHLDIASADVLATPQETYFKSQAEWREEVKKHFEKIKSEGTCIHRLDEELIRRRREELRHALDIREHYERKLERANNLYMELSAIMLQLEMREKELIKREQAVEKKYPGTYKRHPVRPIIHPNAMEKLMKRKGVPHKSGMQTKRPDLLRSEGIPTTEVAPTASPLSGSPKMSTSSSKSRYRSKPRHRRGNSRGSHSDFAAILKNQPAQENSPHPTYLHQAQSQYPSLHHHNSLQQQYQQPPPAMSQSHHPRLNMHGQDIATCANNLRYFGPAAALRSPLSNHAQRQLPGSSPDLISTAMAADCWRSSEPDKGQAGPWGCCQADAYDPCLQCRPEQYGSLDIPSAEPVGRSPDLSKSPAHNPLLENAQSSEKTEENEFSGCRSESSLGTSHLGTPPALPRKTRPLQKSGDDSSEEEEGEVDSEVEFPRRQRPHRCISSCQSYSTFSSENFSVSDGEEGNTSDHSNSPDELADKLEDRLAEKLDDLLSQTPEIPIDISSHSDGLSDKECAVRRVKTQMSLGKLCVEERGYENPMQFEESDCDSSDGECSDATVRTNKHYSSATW

[7] = biological target: Serine/threonine-protein kinase 35 (Homo sapiens) (UniProt Q8TDR2); experiment: Binding affinity to wild-type human partial length STK35 (G182 to A534 residues) expressed in bacterial expression system assessed as residual binding level at 10 uM by Kinomescan method relative to control
[8] = biological target: Serine/threonine-protein kinase 38 (Homo sapiens) (UniProt Q15208); experiment: Binding affinity to wild-type human partial length NDR1 (N33 to E449 residues) expressed in mammalian expression system assessed as residual binding level at 10 uM by Kinomescan method relative to control
[9] = biological target: Peripheral plasma membrane protein CASK (Homo sapiens) (UniProt O14936); experiment: Binding affinity to wild-type human partial length CASK (M1 to H315 residues) expressed in mammalian expression system assessed as residual binding level at 10 uM by Kinomescan method relative to control
[10] = biological target: G protein-coupled receptor kinase 4 (Homo sapiens) (UniProt P32298); experiment: Binding affinity to wild-type human full length GRK4 (M1 to C578 residues) expressed in bacterial expression system assessed as residual binding level at 10 uM by Kinomescan method relative to control
[11] = biological target: Tyrosine-protein kinase ABL2 (Homo sapiens) (UniProt P42684); experiment: Binding affinity to wild-type human ABL2 (A248 to G542 residues) expressed in bacterial expression system assessed as residual binding level at 10 uM by Kinomescan method relative to control
[12] = biological target: Cyclin-dependent kinase 8 (Homo sapiens) (UniProt P49336); experiment: Binding affinity to wild-type human partial length CDK8 (M1 to T360 residues) expressed in bacterial expression system assessed as residual binding level at 10 uM by Kinomescan method relative to control
Chain of Cyclin-dependent kinase 8 (Homo sapiens) (P49336 whole entry, the tested form may be a part): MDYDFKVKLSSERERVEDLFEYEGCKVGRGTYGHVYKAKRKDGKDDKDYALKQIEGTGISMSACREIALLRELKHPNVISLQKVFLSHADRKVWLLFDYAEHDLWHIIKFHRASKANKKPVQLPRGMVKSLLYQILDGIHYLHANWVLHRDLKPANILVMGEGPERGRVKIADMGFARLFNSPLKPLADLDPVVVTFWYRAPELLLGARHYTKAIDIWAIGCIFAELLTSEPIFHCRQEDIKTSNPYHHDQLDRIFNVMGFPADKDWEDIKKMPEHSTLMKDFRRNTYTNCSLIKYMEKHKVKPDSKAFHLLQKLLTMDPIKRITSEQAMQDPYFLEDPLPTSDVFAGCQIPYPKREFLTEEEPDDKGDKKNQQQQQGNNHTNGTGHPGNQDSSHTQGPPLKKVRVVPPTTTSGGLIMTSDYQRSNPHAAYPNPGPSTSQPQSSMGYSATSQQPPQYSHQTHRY

[13] = system: Tyrosine-protein kinase ABL1 (Homo sapiens), P00519 [T315I]; experiment: Binding affinity to human phosphorylated ABL1 T315I mutant (S229 to K512 residues) expressed in mammalian expression system assessed as residual binding level at 10 uM by Kinomescan method relative to control
[14] = biological target: Ribosomal protein S6 kinase alpha-5 (Homo sapiens) (UniProt O75582); experiment: Binding affinity to wild-type human partial length C-terminal RPS6KA5 kinase domain 2 (V390 to T718 residues) expressed in bacterial expression system assessed as residual binding level at 10 uM by Kinomescan method relative to control
Chain of Ribosomal protein S6 kinase alpha-5 (Homo sapiens) (O75582 whole entry, looked up, the tested form may be a part): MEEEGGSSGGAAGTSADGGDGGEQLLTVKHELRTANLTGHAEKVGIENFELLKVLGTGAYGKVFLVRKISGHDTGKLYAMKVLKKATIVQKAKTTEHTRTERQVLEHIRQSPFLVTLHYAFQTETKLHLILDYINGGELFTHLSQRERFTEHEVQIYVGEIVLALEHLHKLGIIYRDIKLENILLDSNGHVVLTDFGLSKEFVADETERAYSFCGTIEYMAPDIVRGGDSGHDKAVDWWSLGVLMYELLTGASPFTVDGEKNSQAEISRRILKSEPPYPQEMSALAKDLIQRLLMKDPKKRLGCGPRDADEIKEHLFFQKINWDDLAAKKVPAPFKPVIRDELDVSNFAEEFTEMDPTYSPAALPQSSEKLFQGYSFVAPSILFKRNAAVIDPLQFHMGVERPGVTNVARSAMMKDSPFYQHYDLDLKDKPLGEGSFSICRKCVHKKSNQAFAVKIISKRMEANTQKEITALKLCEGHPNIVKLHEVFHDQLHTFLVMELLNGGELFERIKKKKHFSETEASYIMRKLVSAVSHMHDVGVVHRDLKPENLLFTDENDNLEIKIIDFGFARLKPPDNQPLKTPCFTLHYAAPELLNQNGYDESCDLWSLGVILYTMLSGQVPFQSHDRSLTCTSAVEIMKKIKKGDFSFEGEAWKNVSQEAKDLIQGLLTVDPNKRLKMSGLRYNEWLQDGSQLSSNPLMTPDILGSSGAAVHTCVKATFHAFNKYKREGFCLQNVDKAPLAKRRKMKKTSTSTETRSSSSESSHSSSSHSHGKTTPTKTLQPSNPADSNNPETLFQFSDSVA

[15] = biological target: RAF proto-oncogene serine/threonine-protein kinase (Homo sapiens) (UniProt P04049); experiment: Binding affinity to wild-type human partial length RAF1 (I330 to T640 residues) expressed in bacterial expression system assessed as residual binding level at 10 uM by Kinomescan method relative to control
[16] = system: Tyrosine-protein kinase ABL1 (Homo sapiens), P00519 [H396P]; experiment: Binding affinity to human phosphorylated ABL1 H396P mutant (S229 to K512 residues) expressed in mammalian expression system assessed as residual binding level at 10 uM by Kinomescan method relative to control
[17] = biological target: Ephrin type-A receptor 1 (Homo sapiens) (UniProt P21709); experiment: Binding affinity to wild-type human partial length EPHA1 (V588 to I913 residues) expressed in bacterial expression system assessed as residual binding level at 10 uM by Kinomescan method relative to control
[18] = biological target: Tyrosine-protein kinase receptor UFO (Homo sapiens) (UniProt P30530); experiment: Binding affinity to wild-type human partial length AXL (R497 to Y821 residues) expressed in bacterial expression system assessed as residual binding level at 10 uM by Kinomescan method relative to control
Chain of Tyrosine-protein kinase receptor UFO (Homo sapiens) (P30530 whole entry, the tested form may be a part): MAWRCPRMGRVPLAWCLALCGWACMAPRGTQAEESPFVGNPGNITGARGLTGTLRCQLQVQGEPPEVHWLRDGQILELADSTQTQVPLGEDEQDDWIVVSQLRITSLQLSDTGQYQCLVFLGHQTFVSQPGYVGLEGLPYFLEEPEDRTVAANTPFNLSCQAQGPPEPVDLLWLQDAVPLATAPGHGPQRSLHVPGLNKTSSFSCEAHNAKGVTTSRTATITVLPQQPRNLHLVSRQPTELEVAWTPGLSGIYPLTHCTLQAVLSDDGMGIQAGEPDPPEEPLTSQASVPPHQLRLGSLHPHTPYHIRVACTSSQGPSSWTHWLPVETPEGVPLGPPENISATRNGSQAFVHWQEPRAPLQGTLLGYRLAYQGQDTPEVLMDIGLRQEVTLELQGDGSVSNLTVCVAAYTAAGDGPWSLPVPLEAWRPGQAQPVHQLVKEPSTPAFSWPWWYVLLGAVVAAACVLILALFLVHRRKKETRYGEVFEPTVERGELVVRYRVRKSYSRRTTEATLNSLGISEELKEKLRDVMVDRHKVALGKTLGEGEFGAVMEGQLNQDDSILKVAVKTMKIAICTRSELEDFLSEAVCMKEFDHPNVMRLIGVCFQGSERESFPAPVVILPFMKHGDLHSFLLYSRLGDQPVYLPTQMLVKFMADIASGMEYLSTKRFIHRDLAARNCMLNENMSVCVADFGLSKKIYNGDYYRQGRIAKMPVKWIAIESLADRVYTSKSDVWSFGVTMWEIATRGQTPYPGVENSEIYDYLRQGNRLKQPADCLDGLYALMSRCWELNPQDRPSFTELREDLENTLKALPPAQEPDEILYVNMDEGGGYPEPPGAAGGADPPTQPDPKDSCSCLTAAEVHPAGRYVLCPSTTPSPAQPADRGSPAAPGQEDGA

[19] = Cytotoxicity against human SH-SY5Y cells assessed as reduction in cell viability at 100 uM incubated for 24 hrs by MTT assay relative to untreated cells; type: cell-based; conditions: read-out: INH
[20] = biological target: Serine/threonine-protein kinase Nek10 (Homo sapiens) (UniProt Q6ZWH5); experiment: Binding affinity to wild-type human partial length NEK10 (L488 to R809 residues) expressed in mammalian expression system assessed as residual binding level at 10 uM by Kinomescan method relative to control
[21] = biological target: Tyrosine-protein kinase JAK2 (Homo sapiens) (UniProt O60674); experiment: Binding affinity to wild-type human partial length JAK2 JH1 catalytic domain (A829 to G1132 residues) expressed in mammalian expression system assessed as residual binding level at 10 uM by Kinomescan method relative to control
[22] = biological target: Mitogen-activated protein kinase kinase kinase kinase 5 (Homo sapiens) (UniProt Q9Y4K4); experiment: Binding affinity to wild-type human partial length MAP4K5 (M1 to P297 residues) expressed in bacterial expression system assessed as residual binding level at 10 uM by Kinomescan method relative to control
[23] = biological target: Macrophage colony-stimulating factor 1 receptor (Homo sapiens) (UniProt P07333); experiment: Binding affinity to wild-type human partial length CSF1R (I564 to S939 residues) expressed in bacterial expression system assessed as residual binding level at 10 uM by Kinomescan method relative to control
[24] = biological target: Myosin-IIIb (Homo sapiens) (UniProt Q8WXR4); experiment: Binding affinity to wild-type human partial length MYO3B (M1 to D357 residues) expressed in bacterial expression system assessed as residual binding level at 10 uM by Kinomescan method relative to control
[25] = biological target: Insulin-like growth factor 1 receptor (Homo sapiens) (UniProt P08069); experiment: Binding affinity to wild-type human partial length IGF1R (L972 to D1294 residues) expressed in bacterial expression system assessed as residual binding level at 10 uM by Kinomescan method relative to control

O=C(Nc1cc(-c2cn(CCNc3c4c(nc5ccccc35)CCCC4)nn2)ccn1)Nc1cccc2c1C1CCCCN1C2=O (racemic)
Activity [1]: 74% | Activity [2]: 91% | Activity [3]: 54% | Activity [4]: 38% | Activity [5]: 100% | Activity [6]: 13% | Activity [7]: 97% | Activity [8]: 100% | Activity [9]: 65% | Activity [10]: 7% | Activity [11]: 22% | Activity [12]: 64% | Activity [13]: 2.9% | Activity [14]: 96% | Activity [15]: 97% | Activity [16]: 0.5% | Activity [17]: 60% | Activity [18]: 5.5% | cytotoxicity at 24 h, 100 µM [19]: 50% | Activity [20]: 2.5% | Activity [21]: 21% | Activity [22]: 25% | Activity [23]: 0.2% | Activity [24]: 100% | Activity [25]: 75%
